Experimental data from US11191855B2, “1,7-diaryl-1,6-heptadiene-3,5-dione derivatives, methods for the production and use thereof” (UNIVERSITÄTSKLINIKUM REGENSBURG, priority 2015, dated 2021).
Read-outs that look alike come from different tables or passages of the source.

Key:
E. coli ATCC 25922 [1] = test: Phototoxicity test c.2) (BlueV light source, emission maximum approx. 420 nm, CFU count); assay type: cell-based, Escherichia coli; conditions: light dose 15.7 J/cm^2, approx. 420 nm, 15 min at 17.5 mW/cm^2, vs reference control
Protocol: (§1) A sample of the bacterial cell Staphylococcus. aureus (ATCC number: 25923) or Escherichia. coli (ATCC number: 25922) was removed from a cryo-freeze culture and cultured under aerobic conditions at 37° C. and 175 rpm overnight in an orbital shaker (MAXQ4000, Thermo Scientific, Dubuque, Iowa, USA). Growth was carried out in 20 mL Todd-Hewitt broth (Carl Roth, Karlsruhe, Germany) supplemented with 0.3% of yeast extract (AppliChem, Darmstadt, Germany).
In a second experiment, the photosensitizers (PS) used were dissolved in Millipore water and adjusted to various concentrations. 25 μL of a bacterial suspension grown overnight (˜108/mL) was incubated with 25 μL of photosensitizer solution of the various concentrations at room temperature for 10 seconds in darkness in a 96-well plate.
Next, the suspension was irradiated for 5-20 minutes. For the irradiation, the light source BlueV from Waldmann (Villingen-Schwenningen, Germany) was used, which emits light from 380 to 480 nm (emission maximum at approximately 420 nm). The applied energy density was 17.5 mW/cm^2.
Each experiment was accompanied by three controls in order to exclude side effect of the irradiation/photosensitizer (PS) on the survival of the bacteria: (i) no PS, only light (=light control), (ii) no light, only PS (=dark control) and (iii) neither light nor PS (=reference control). The determination of the colony forming units (CFU) per mL was also carried out in accordance with the method published by Miles, Misra and Irwin described above in section c.1). All of the tests were carried out four times.
The photosensitizers (PS) SACUR-01a, SACUR-03 and SACUR-07 were tested against the bacterial strains S. aureus ATCC 25923 and E. coli ATCC 25922 (FIGS. 21-23). All of the remaining PS were tested against S. aureus ATCC 25923 (FIGS. 24-33). FIGS. 21-33 show the logarithmic reduction after illumination with respect to the reference control.
The average reference control (arithmetic mean with standard deviation) (no light, no PS) was 3.6×10^8/mL for E. coli. The logarithmic reduction after illumination is shown with respect to the reference control.

E. coli ATCC 25922 [2] = test: Phototoxicity test c.1) (LED array 430-435 nm, CFU count by Miles and Misra); assay type: cell-based, Escherichia coli; conditions: Escherichia coli, ATCC25922, light or radiation study, light dose 33.8 J/cm^2, approx. 435 nm, 60 min at 9.4 mW/cm^2, vs reference control; for log reduction at 10 µM: read-out: Effectiveness against E. Coli: Reduction in CFU in log10 at concentration of 10 μM; for log reduction at 50 µM: read-out: Effectiveness against E. Coli: Reduction in CFU in log10 at concentration of 50 μM
Protocol: as §1
Subsequently, dilutions (0, 5, 10, […] and 20% v/v of the overnight culture) and their absorptions were measured at 600 nm in triplicate for 100 μL (Infinite 200 M Pro, Tecan, Mannedorf, Switzerland). A calibration graph (Microsoft Excel) was used to calculate the volume which was required to produce 20 mL of a culture with an absorption of 0.05 at 600 nm. The volume calculated for the overnight culture was topped up with Todd-Hewitt broth (composition as above) to 20 mL and incubated for two hours at 37° C. with constant movement (175 rpm, MAXQ4000). The cultures were then in the exponential growth phase; the absorption at 600 nm was between 0.3 and 0.45.
A 2-hour culture was divided into 1800 μL aliquots. After centrifuging at 20° C., 830 rcf, 5 min (5417R centrifuge, Eppendorf, Hamburg, Germany), the pellets were re-suspended in phosphate buffer (Dulbeccos' Modified Phosphate Saline, DPBS, Sigma-Aldrich) with either 10 or 50 μM of the corresponding photosensitizer, wherein the final volume was kept at 1800 μL.
The solutions obtained were immediately incubated on the orbital shaker (see above for parameters) for 5 or 25 minutes.
Three controls were run at the same time for each photosensitizer. The “light only” control contained DPBS without photosensitizer. The “photosensitizer only” (“PS only”) control was incubated like the PDI samples, but not irradiated and kept strictly in darkness. A further control (double negative, “Co−/−”), received neither light nor photosensitizer.
After the incubation, duplicates of the samples (500 μL each) were transferred into a 24-well microtitre plate (Cellstar, Greiner Bio-One, Frickenhausen, Germany). The “PS only” and “Co −/−” samples were placed in their own microtitre plate which was packed in aluminium foil so as to be lightproof.
The irradiation was carried out under constant shaking (MTS4, IKA, Staufen, Germany, 175 rpm) from below on a LED array with maximum homogeneity of the lighting surface. All of the controls were shaken in the same manner. The technical data for the light source are shown in Table 2; the total dose of light applied was 33.8 J/cm^2.
The determination of the colony forming units (CFU) was carried out in accordance with the method published by Miles and Misra (Miles, A A; Misra, S S, Irwin, J O (1938 Nov.). “The estimation of the bactericidal power of the blood” The Journal of hygiene 38 (6): 732-49). In this regard, serial dilutions (1:10) of the corresponding bacterial suspension were produced in DPBS. 5×10 μL of each bacterial dilution was then dripped onto Todd-Hewitt plates (with broth, additional 1.5% agar (Agar-Agar, Kobe I, Roth, Karlsruhe, Germany) and incubated at 37° C. for 24 h. Next, the number of surviving colony forming units was determined. All of the tests were carried out four times.
The photosensitizers were tested against the bacterial strain E. coli ATCC 25922. FIGS. 1-20 show the measured surviving colony forming units (CFU).
The average reference control (arithmetic mean with standard deviation) (no light, no PS) was 3.6×10^8/mL. The logarithmic reduction after illumination is shown with respect to the reference control. The respective upper value, indicated by a *, refers to an incubation period of 5 min and the respectively lower value, indicated by a #, refers to an incubation period of 25 min.

[3] = 5 min, incubation period 5 min (upper value, *)
[4] = 25 min, incubation period 25 min (lower value)

Structure (SMILES)	Effectiveness against E. Coli: Reduction in CFU in log10 at concentration of 10 μM (E. coli ATCC 25922 [1]) [log10]	Effectiveness against E. Coli: Reduction in CFU in log10 at concentration of 50 μM (E. coli ATCC 25922 [1]) [log10]	log reduction at 10 µM (E. coli ATCC 25922 [2]; [3])	log reduction at 50 µM (E. coli ATCC 25922 [2]; [3])	log reduction at 10 µM (E. coli ATCC 25922 [2]; [4])	log reduction at 50 µM (E. coli ATCC 25922 [2]; [4])
COc1cc(/C=C/C(=O)CC(=O)/C=C/c2ccc(OCCN)c(OC)c2)ccc1OCCN.Cl.Cl [Curcumin 01a hydrochloride]	>4	>5	> 1	> 5	> 2	> 5
Cl.Cl.Cl.Cl.NCCOc1ccc(/C=C/C(=O)CC(=O)/C=C/c2ccc(OCCN)c(OCCN)c2)cc1OCCN [Curcumin 03 hydrochloride]	>4	>5	> 7	> 7	> 7	> 7
